The values below come from article PMC10531311, “Anti-Inflammatory Activities of 8-Benzylaminoxanthines Showing High Adenosine A2A and Dual A1/A2A Receptor Affinity” (International Journal of Molecular Sciences, 2023).

Data set [1] concerns the target T1, human adenosine A3R (Homo sapiens, UniProt P0DMS8).
T1 construct: expressed in transfected cells; host or cells: CHO cells
T1 sequence (P0DMS8 1-318): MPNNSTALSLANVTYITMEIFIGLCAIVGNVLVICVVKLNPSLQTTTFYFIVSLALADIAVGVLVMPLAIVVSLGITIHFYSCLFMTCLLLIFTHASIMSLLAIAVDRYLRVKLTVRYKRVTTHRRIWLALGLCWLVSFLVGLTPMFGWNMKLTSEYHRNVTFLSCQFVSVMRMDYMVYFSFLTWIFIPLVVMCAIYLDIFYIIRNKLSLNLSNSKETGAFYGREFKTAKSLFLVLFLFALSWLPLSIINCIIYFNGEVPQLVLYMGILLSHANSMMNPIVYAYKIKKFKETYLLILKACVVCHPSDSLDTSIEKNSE
Briefly: Radioligand binding at human adenosine A3 receptor vs. [3H]PSB-11. As to conditions: for inhibition at 1 µM: CHO cells, read-out: A3R vs. [H³]PSB-11 % Inhibition ± SEM at 1 µM; for Ki: human recombinant receptor in CHO cells, read-out: A3R vs. [H³]PSB-11 Ki ± SEM.

For data set [2], the target named is T2, human MAO B (Homo sapiens, UniProt P27338).
T2 sequence (P27338 1-520): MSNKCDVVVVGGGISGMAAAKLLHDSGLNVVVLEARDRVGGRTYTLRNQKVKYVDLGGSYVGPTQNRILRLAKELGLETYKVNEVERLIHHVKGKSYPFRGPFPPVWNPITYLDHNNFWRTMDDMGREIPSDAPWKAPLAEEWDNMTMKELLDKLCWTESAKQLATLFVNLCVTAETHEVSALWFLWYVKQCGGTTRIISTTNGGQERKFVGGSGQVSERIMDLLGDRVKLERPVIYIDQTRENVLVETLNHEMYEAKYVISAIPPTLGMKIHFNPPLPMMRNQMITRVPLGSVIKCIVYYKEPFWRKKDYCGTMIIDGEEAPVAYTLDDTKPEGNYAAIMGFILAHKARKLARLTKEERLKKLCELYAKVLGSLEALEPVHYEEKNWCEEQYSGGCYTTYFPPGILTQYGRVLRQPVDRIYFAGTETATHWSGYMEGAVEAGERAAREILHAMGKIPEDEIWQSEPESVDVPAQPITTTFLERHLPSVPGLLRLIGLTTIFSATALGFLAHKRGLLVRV
Briefly: Human MAO B inhibition, fluorometric method. The data set is classed as biochemical. The settings on record: mean of two independent experiments, read-out: % of hMAO B Inhibition at 1 µM. The protocol:
The compounds were tested twice in duplicates at a concentration of 1 μM by fluorometric method as previously described. Paratyramine (200 μM) was used as a substrate for the enzyme. Safinamide (1 μM; reversible) and rasagiline (1 μM; irreversible) were used as reference inhibitors.

Data set [3] has as its target T3, CYP3A4 (Homo sapiens, UniProt P08684).
T3 construct: purchased Promega (Madison, WI, USA)
Put plainly: Drug-drug interactions, CYP3A4 P450-Glo. It is filed as in vitro ADME. The settings on record: 10 µM. On the procedure: To predict potential drug-drug interactions (DDI) effects on three of the most relevant cytochrome P450 (CYP), isoforms CYP3A4, CYP2D6 and CYP2C9 were investigated at a concentration of 10 µM. The results were compared with the effects of 1 µM of the selective inhibitors ketoconazole (CYP3A4), quinidine (CYP2D6) and sulfaphenazole (CYP2C9).
The influence of the tested compounds on recombinant human cytochromes was determined with the use of CYP3A4, CYP2D6 and CYP2C9 P450-Glo™ kits and protocols provided by Promega (Madison, WI, USA). Compounds were tested at a concentration of 10 μM. Reference inhibitors: Ketoconazole (CYP3A4), quinidine (CYP2D6) and sulfaphenazole (CYP2C9) were tested at 1 μM. The luminescent signals were measured using a microplate reader EnSpire PerkinElmer (Waltham, MA, USA).

The nature of data set [4]: PAMPA blood brain barrier permeability. The data set is classed as in vitro ADME. The protocol:
The ability of compounds, especially those intended to act in the CNS, to penetrate the blood-brain barrier (BBB) is an important property to consider in the initial stages of drug candidate screening. The PAMPA assay is a commonly used test to assess the passive permeation of the BBB [17]. In our study, caffeine was used as a highly permeable compound. […] After 5 h of incubation at room temperature, the results were analyzed by LC-MS, and the permeability coefficients (Pe) were calculated.
For permeability evaluation, a PAMPA Gentest™ pre-coated […] system, provided by Corning (Tewksbury, MA, USA), was used. The precise procedure was previously described. The permeability coefficient Pe was calculated based on the given equations. Concentrations of the tested compounds in the apical and basolateral wells were determined by LC/MS analysis using an internal standard.
On the technique in general: The PAMPA barrier holds no transporters, so it reflects passive diffusion.

Setting [5] is: 100 μM in PBS, 5 h, room temperature, triplicate.
Setting [6] is: 100 μM in PBS, 5 h, room temperature, triplicate, read-out: Pe ± SD.

Read-outs that look alike come from different tables or passages of the source. Some results are limits rather than exact numbers.

T3 sequence (P08684 whole entry): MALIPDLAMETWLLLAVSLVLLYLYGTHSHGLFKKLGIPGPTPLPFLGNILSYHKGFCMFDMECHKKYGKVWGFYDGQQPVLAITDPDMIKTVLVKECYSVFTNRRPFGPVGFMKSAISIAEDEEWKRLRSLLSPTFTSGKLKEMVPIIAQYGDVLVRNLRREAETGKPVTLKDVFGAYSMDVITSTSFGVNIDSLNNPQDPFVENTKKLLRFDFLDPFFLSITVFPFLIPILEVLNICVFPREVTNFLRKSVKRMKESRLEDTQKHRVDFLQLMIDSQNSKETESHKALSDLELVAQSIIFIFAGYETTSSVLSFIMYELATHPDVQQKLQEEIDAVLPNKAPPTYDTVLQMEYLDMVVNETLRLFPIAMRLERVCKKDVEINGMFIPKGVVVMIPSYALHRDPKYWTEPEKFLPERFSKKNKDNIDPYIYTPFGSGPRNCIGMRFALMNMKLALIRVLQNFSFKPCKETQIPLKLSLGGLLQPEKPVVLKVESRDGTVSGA

As usually defined, the inhibition is the change of the read-out against control, counted positive when it falls. As a reminder, the Ki is a measure of affinity in units of concentration, obtained from inhibition or displacement. For orientation: melting point means the temperature, or range, at which the solid turns liquid. For the molecule `C#CCn1c(=O)c2c(nc(NCc3cccc(Br)c3)n2C)n(C)c1=O` [compound 24, 8-((3-Bromobenzyl)amino)-3,7-dimethyl-1-(prop-2-yn-1-yl)-3,7-dihydro-1H-purine-2,6-dione], the melting point lay within 248 to 250 °C. For the same molecule, in data set [1], the inhibition at 1 µM amounted to 7% and the Ki is over 1000 nM. Moreover, in data set [2], the inhibition at 1 µM turned out to be 10%. Moreover, in data set [3], the “CYP3A4 activity, % of the control activity” value (“CYP3A4 activity, %” for short) is listed as ~ 20%. The “Drug Retention” value in data set [4] worked out at 93.30%. Further, the “Pe ± SD” value in data set [4] (setting [5]) is on record as 0.89 10^−6 cm/s. In addition, the Papp at 5 h, 100 μM in data set [4] (setting [6]) amounted to 0.89 ± 0.71 ×10⁻⁶ cm/s. Moreover, the Papp at 5 h, 100 μM in data set [4] (read-out: Permeable) was at most 1.5 ×10⁻⁶ cm/s.
Molecule `C#CCn1c(=O)c2c(nc(NCc3ccccc3Cl)n2C)n(C)c1=O` [compound 19, 8-((2-Chlorobenzyl)amino)-3,7-dimethyl-1-(prop-2-yn-1-yl)-3,7-dihydro-1H-purine-2,6-dione] gave a melting point of 223 to 225 °C. Also, in data set [1], the inhibition at 1 µM worked out at 9% and the Ki was over 1000 nM. For the same molecule, the inhibition at 1 µM in data set [2] worked out at 6%. Further, in data set [3], the “CYP3A4 activity, %” value is ~ 20%. The “Drug Retention” value in data set [4] amounted to 51.78%. In addition, in data set [4] (setting [5]), the “Pe ± SD” value is “greater than 1.5 10^−6 cm/s”. The Papp at 5 h, 100 μM in data set [4] (setting [6]) amounted to 3.13 ± 0.82 ×10⁻⁶ cm/s. In data set [4] (read-out: Permeable), the Papp at 5 h, 100 μM is at least 1.5 ×10⁻⁶ cm/s.
As to `C#CCn1c(=O)c2c(nc(NCc3c(F)cccc3Cl)n2C)n(C)c1=O` [compound 22, 8-((2-Chloro-6-fluorobenzyl)amino)-3,7-dimethyl-1-(prop-2-yn-1-yl)-3,7-dihydro-1H-purine-2,6-dione], the melting point fell in the range of 276 to 278 °C. Besides, in data set [1], the inhibition at 1 µM was 21% and the Ki was over 1000 nM. In data set [2], the inhibition at 1 µM is 7%. The “CYP3A4 activity, %” value in data set [3] is on record as “around 75%”. For the same molecule, the “Drug Retention” value in data set [4] is given as 68.62%. Further, the “Pe ± SD” value in data set [4] (setting [5]) was 0.37 10^−6 cm/s. For the same molecule, the Papp at 5 h, 100 μM in data set [4] (setting [6]) was found to be 0.37 ± 0.01 ×10⁻⁶ cm/s. Moreover, the Papp at 5 h, 100 μM in data set [4] (read-out: Permeable) is at most 1.5 ×10⁻⁶ cm/s.
